Results as given in patent US12708106B2 (priority 2019, dated 2026).

Test system: Eimeria and Clostridium perfringens
Format: in vivo, male broilers
[1] = T4: 10 ppm (Enradin 8%), Eimeria + Clostridium challenge, mean ± SD

## Enramycin
[1]
  BWG—Body Weight Gain 1-7 D: 90.95 ± 5.11 b g
  FCR (Feed Conversion Ratio) 1-7 D: 1.568 ± 0.123
T4: 10 ppm, challenged
  BWG—Body Weight Gain 1-14 D: 413.37 ± 12.89 b g
  BWG—Body Weight Gain 1-21 D: 926.22 ± 23.58 b g
  BWG—Body Weight Gain 1-28 D: 1595.5 ± 42.62 b g
  FCR (Feed Conversion Ratio) 1-14 D: 1.070 ± 0.049
  FCR (Feed Conversion Ratio) 1-21 D: 1.255 ± 0.036 ab
  FCR (Feed Conversion Ratio) 1-28 D: 1.228 ± 0.024 ab
